Molecular target: T1, PRL3 (Homo sapiens, UniProt O75365)
T1 construct: gene PTP4A3; residues 1-169 in pET15b, His6 tag with thrombin site, N-terminal Gly-Ser-His extension left; wild type; expressed in E. coli
Assay: phosphorylation of catalytic Cys104 followed on Phos-tag SDS-PAGE
Type: biochemical
Settings: no magnesium; 43 µM PRL3, 20 mM HEPES, 100 mM NaCl, 10 mM DTT, pH 7.0; 30 °C and room temperature; estimate from concentration dependence; covalent phosphocysteine formed

T1 sequence (O75365 1-169): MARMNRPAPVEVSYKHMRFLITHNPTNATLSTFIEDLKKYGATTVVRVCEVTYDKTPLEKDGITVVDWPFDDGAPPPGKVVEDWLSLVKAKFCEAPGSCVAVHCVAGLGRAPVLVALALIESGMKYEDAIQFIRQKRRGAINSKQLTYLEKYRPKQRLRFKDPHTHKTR

`Nc1ncnc2c1ncn2[C@@H]1O[C@H](COP(=O)(O)OP(=O)(O)OP(=O)(O)O)[C@@H](O)[C@H]1O` [ATP] was tested, and the Km was > 2000 µM.

From publication PMC5427921, “PRL3 phosphatase active site is required for binding the putative magnesium transporter CNNM3” (Scientific Reports, 2017)
